Measurements from patent US20130157973A1, “PHARMACEUTICAL COMPOSITIONS AND METHODS FOR TREATING GASTROINTESTINAL INFECTIONS AND DISORDERS” (priority 2011, published 2013).
Read-outs that look alike come from different tables or passages of the source.

How the values were obtained:
serum HCV RNA = experiment: Phase IIa studies: serum HCV RNA by quantitative polymerase chain reaction; type: in vivo, hepatitis C virus
Description: Two randomized, double-blind phase IIa studies of Compound B administered two times per week for 4 weeks. Multicenter study (U.S.): 12 subjects received Compound B 0.01 mg/kg and 4 received placebo. Single center study (France): 6 subjects received 0.01 mg/kg, 11 received 0.02 mg/kg and 6 received placebo.
Serum HCV RNA was measured by quantitative polymerase chain reaction (NGI). Subjects were categorized as responders (reduction from baseline of ˜2 logs) or non-responders at the end-of-treatment visit (day 29), and at the last follow-up visit (day 113 U.S. study, and day 57 French study).

[1] = Placebo-controlled single and multiple administration tolerability studies in healthy adults; type: in vivo; settings: single administration study in 48 healthy adults, up to 0.05 mg/kg
[2] = Single-dose pharmacokinetics of Compound B, fasted and fed cohorts; type: in vivo, human; settings: for Cmax / AUC(0-inf) / half-life / Tmax: human, plasma, oral; for Cmax: read-out: Cmax Mean (% CV); for AUC(0-inf): read-out: AUCinf Mean (% CV); for Tmax: read-out: Tmax Median (Q1, Q3)
Description: Table 1 and Table 2 present the PK parameters of Compound B following the administration of a single dose of Compound B in the fasted cohorts and fed cohorts, respectively. Mean maximal plasma concentration values (Cmax) were higher with increasing dose in the fasted treatment groups. Mean maximal plasma concentration values were lower when Compound B (8 mg) was administered with moderate- or high-fat meal or following a high fat-meal than when Compound B was administered under fasting conditions.

IFN-α = experiment: Phase IIa studies: serum type I IFN levels by bioassay; type: in vivo, human
Description: (§1) Samples for cytokines were obtained at 0, 2, 4, 6, 8, 12 and 24 h after the first dose, prior to dosing at days 8, 15, 22 or 25 (see above regarding pharmacokinetics) and day 29. Serum IL-6, IL-1RA, TNF-α and IFN-γ were measured by enzyme-linked immunosorbent assay (Immunotech, Cedex, France) and neopterin by immunoenzymatic assay (Immunotech, Cedex, France). Serum type I IFN levels were determined by bioassay. Serum 2′,5′ oligoadenylate synthetase (2′5′ AS) was measured by radioimmunoassay (Eiken Chemical Co. Ltd., Tokyo, Japan). Serum IL-12 p40 was measured by enzyme-linked immunosorbent assay (R&D Systems, Minneapolis, Minn.) Immunophenotyping of T lymphocytes in the U.S. study was performed at NGI.

[3] = Phase IIa studies in chronic HCV subjects: safety, neutrophil and lymphocyte counts, liver enzymes; type: in vivo, human; settings: for proportion of subjects with AST elevations / proportion of subjects with ALT elevations: French study, 0.02 mg/kg group
Description: Single center study (France): 6 subjects received 0.01 mg/kg, 11 received 0.02 mg/kg and 6 received placebo.
Exclusion criteria included clinically meaningful cirrhosis on prior liver biopsy (U.S. study), positive serology for possible autoimmune hepatitis (ANA˜1:640, ASMA>1:320, ALKM antibody>1:320), hepatocellular neoplasia, anemia (<12 g/dL for men, <11 for women), thrombocytopenia (<90,000/μL), leukopenia (<2500 cells/μL), neutropenia (<1500 cells/μL, U.S. study), ALT>1000 U/L (French study) or aspartate aminotransferase (AST) or ALT>500 U/L (U.S. study), bilirubin>1 mg/dL, decompensated liver disease, other liver diseases, positive serology for HIV, positive HBsAg, prior organ transplantation, significant psychiatric disease, alcohol or drug abuse within 12 months, systemic immunomodulatory or investigational therapy within 3 months, and significant cardiac, pulmonary, systemic inflammatory or thyroid disease.
In the U.S. study, subjects were assigned centrally across centers. Active to placebo assignment was 3:1 for each cohort. Sample sizes were not prospectively powered.
All subjects were to receive study drug two times per week for 4 weeks. Subjects self-administered study drug at home except on study visits with pharmacokinetic and pharmacodynamic sampling where it was administered in the clinic. […] In the U.S. study, subjects received 0.01 mg/kg of resiquimod.
as §1, with “Serum” for “Samples for cytokines were obtained at 0, 2, 4, 6, 8, 12 and 24 h after the first dose, prior to dosing at days 8, 15, 22 or 25 (see above regarding pharmacokinetics) and day 29. Serum”

[4] = of the 11 subjects with at least a 1-log reduction at any time
[5] = 0.3 mg, single dose 0.3 mg, Cohort 1, fasted
[6] = 1 mg, single dose 1 mg, Cohort 2, fasted
[7] = 2 mg, single dose 2 mg, Cohort 3, fasted
[8] = 4 mg, single dose 4 mg, Cohort 4, fasted
[9] = 6 mg, single dose 6 mg, Cohort 5, fasted
[10] = 8 mg, single dose 8 mg post high-fat meal (4 hours), Cohort 9
[11] = 8 mg, single dose 8 mg with a high-fat meal, IFE Cohort
[12] = 8 mg, single dose 8 mg with a moderate-fat meal, Cohort 8
[13] = 8 mg, single dose 8 mg, Cohort 6, fasted
[14] = 12 mg, single dose 12 mg, Cohort 7, fasted

For `CCCCOc1nc(N)c2c(n1)N(Cc1cccc(CN3CCCC3)c1)CC(=O)N2` [Compound B, 4-amino-2-butoxy-8-(3-(pyrrolidin-1-ylmethyl)benzyl)-7,8-dihydropteridin-6(5H)-one], the “subjects with at least a 1-log reduction in HCV levels at any time during the study” value (serum HCV RNA; 0.01 mg/kg group) was “five”, the “subjects with at least a 1-log reduction in HCV levels at any time during the study” value (serum HCV RNA; 0.02 mg/kg group) was “six” and the “subjects with maximal reduction in viral levels of at least 1-log” value (serum HCV RNA; 0.02 mg/kg group) was “Two”. For the same molecule, the “subjects with maximal reduction in viral levels of at least 2-logs” value (serum HCV RNA; 0.02 mg/kg group) was “three”, the “subjects with maximal reduction in viral levels of at least 3-logs” value (serum HCV RNA; 0.02 mg/kg group) was “one” and the “responders per protocol (2 log reduction) at end-of-treatment visit” value (serum HCV RNA; 0.02 mg/kg, day 29, not sustained on follow-up) was “one”. For the same molecule, the “subjects whose HCV Rmax occurred at day 29 or after” value (serum HCV RNA; [4]) was 5 subjects, the “subjects whose HCV Rmax occurred within 48 h after dose 1” value (serum HCV RNA; [4]) was 6 subjects and the “effect on viral levels” value (serum HCV RNA; oral 0.02 mg/kg) was “transiently reduced viral levels”. The “serum HCV RNA levels after the first dose” value (serum HCV RNA; peaking at about 24 h, trending toward baseline by 48 h) was “dose-dependent decrease”, the “maximum tolerated oral dose” value [1] was 0.03 mg/kg and the “Mean maximal plasma concentration fed vs fasting” value ([2]; 8 mg with moderate- or high-fat meal or following a high-fat meal, vs fasting conditions) was “lower”. For the same molecule, the Cmax [2, 5] was 0.184 ng/mL, the AUC(0-inf) ([2]; 0.3 mg, single dose 0.3 mg, Cohort 1, fasted, limited terminal phase data, interpret with caution) was 2.97 ng·h/mL and the half-life ([2]; 0.3 mg, single dose 0.3 mg, Cohort 1, fasted, plasma measured only to 24 hours, interpret with caution, read-out: T½ Median (Q1, Q3) (converted)) was 10.4 h. The Tmax [2, 5] was 3 h, the Cmax [2, 6] was 0.44 ng/mL and the AUC(0-inf) [2, 6] was 9.23 ng·h/mL. The Tmax [2, 6] was 3 h, the half-life ([2]; 1 mg, single dose 1 mg, Cohort 2, fasted, read-out: T½ Median (Q1, Q3) (converted)) was 26.9 h and the Cmax [2, 7] was 0.633 ng/mL. It also gave an AUC(0-inf) [2, 7] of 11.3 ng·h/mL, a Tmax [2, 7] of 6 h and a half-life ([2]; 2 mg, single dose 2 mg, Cohort 3, fasted, read-out: T½ Median (Q1, Q3) (converted)) of 24.3 h. It also gave a Cmax [2, 8] of 2.93 ng/mL, an AUC(0-inf) [2, 8] of 57.2 ng·h/mL and a Tmax [2, 8] of 4 h. For the same molecule, the half-life ([2]; 4 mg, single dose 4 mg, Cohort 4, fasted, read-out: T½ Median (Q1, Q3) (converted)) was 17.2 h, the Cmax [2, 9] was 7.26 ng/mL and the AUC(0-inf) [2, 9] was 76.9 ng·h/mL. For the same molecule, the Tmax [2, 9] was 2.5 h, the half-life ([2]; 6 mg, single dose 6 mg, Cohort 5, fasted, read-out: T½ Median (Q1, Q3) (converted)) was 14.7 h and the AUC(0-inf) [2, 10] was 79.5 ng·h/mL. It also gave a Cmax [2, 10] of 4.53 ng/mL, a Tmax [2, 10] of 5 h and a half-life ([2]; 8 mg, single dose 8 mg post high-fat meal (4 hours), Cohort 9, read-out: T½ Median (Q1, Q3) (converted)) of 20.5 h. For the same molecule, the AUC(0-inf) [2, 11] was 71.4 ng·h/mL, the Cmax [2, 11] was 5.24 ng/mL and the Tmax [2, 11] was 3 h. For the same molecule, the half-life ([2]; 8 mg, single dose 8 mg with a high-fat meal, IFE Cohort, read-out: T½ Median (Q1, Q3) (converted)) was 23.6 h, the AUC(0-inf) [2, 12] was 51.1 ng·h/mL and the Cmax [2, 12] was 2.04 ng/mL. For the same molecule, the Tmax [2, 12] was 2 h, the half-life ([2]; 8 mg, single dose 8 mg with a moderate-fat meal, Cohort 8, read-out: T½ Median (Q1, Q3) (converted)) was 21.6 h and the Cmax [2, 13] was 8.34 ng/mL. It also gave an AUC(0-inf) [2, 13] of 109 ng·h/mL, a Tmax [2, 13] of 2.51 h and a half-life ([2]; 8 mg, single dose 8 mg, Cohort 6, fasted, read-out: T½ Median (Q1, Q3) (converted)) of 19.5 h. For the same molecule, the Cmax [2, 14] was 12 ng/mL, the AUC(0-inf) [2, 14] was 140 ng·h/mL and the Tmax [2, 14] was 1.51 h. The half-life ([2]; 12 mg, single dose 12 mg, Cohort 7, fasted, read-out: T½ Median (Q1, Q3) (converted)) was 16.3 h, the half-life ([2]; all groups except the 0.3-mg group, read-out: Median terminal half-life values across groups) was 14.7 to 26.9 h and the “IFN-α Rmax post-dose 1 of individual subject” value (IFN-α; 0.02 mg/kg subject who discontinued treatment for severe grade flu-like symptoms) was 3946 IU/mL. The “IFN-α Rmax post-dose 1 of individual subject” value (IFN-α; 0.02 mg/kg subject who discontinued treatment for severe grade lymphopenia) was 15,557 IU/mL, the “proportion of subjects with AST elevations” value ([3]; day 1 (6/11)) was 55% and the “proportion of subjects with ALT elevations” value ([3]; day 1 (9/11)) was 82%. For the same molecule, the “proportion of subjects with AST elevations” value ([3]; day 29 (1/9)) was 11%, the “proportion of subjects with ALT elevations” value ([3]; day 29 (5/9)) was 56% and the “ALT and AST levels” value ([3]; U.S. study, 0.01 mg/kg) was “Neither ALT nor AST levels appeared to be affected”. The “changes in physical examinations” value ([3]; both studies) was “no clinically meaningful changes”, the “Clinically relevant changes in CD4+ lymphocyte counts or CD4+/CD8+ lymphocyte ratios” value ([3]; human, in vivo) was “not observed” and the adverse effects ([3]; oral 0.02 mg/kg) was “adverse effects similar to interferon-alpha”.
